Assay results reported in a melting point compilation (Tetko et al.; mined from patent text by program, amines drawn as free bases though some values may be those of a salt).

Row | Compound | melting point [°C]
1 | CC(C)Cn1c(=O)n(C)c(=O)c2c(SCCN(C)C)n(Cc3cccc4ccccc34)cc21 | 140 to 144
2 | CC(=O)OC1(C(C)=O)C(C)CC2C3CC(C)C4=CC(=O)C=CC4(C)C3C(O)CC21C (stereo not given) | 270 to 272
3 | COc1ccc(-c2nc3n(c2-c2ccccc2)Cc2ccccc2C3)cc1 | 172 to 173
4 | CCN(CC)CCC1CCN(CCNC(=O)N2c3ccccc3C(=O)Nc3cccnc32)CC1 | 170 to 172
5 | CS(=O)(=O)OC[C@H]1CCn2c(cc3ccccc32)C1 | 114 to 115
6 | Oc1ccc(-c2ccc(O)cc2I)c(I)c1 | 171 to 172
7 | O=c1[nH]c2ncc(-c3ccc4cc[nH]c4c3)nc2n1CC1CCCCC1 | 359 to 363
8 | Cc1ccc(N2C(=O)N(CC(=O)O)C(=O)C23CCCCC3)cc1 | 206
9 | Cc1c(C(=O)N[C@H](C)[C@](O)(Cn2cncn2)c2ccc(F)cc2F)cnn1-c1c(Cl)cccc1Cl | 226 to 227
10 | COC(=O)c1cc2c(C)ccc(Cl)c2[nH]1 | 133 to 134
11 | ON=CNc1nc(OCc2ccc(F)cc2)ncc1F | 169 to 171
12 | Cn1cnc(COc2nn3c(-c4ccccc4)nnc3cc2-c2ccoc2)n1 | 241
13 | Cc1nn(-c2c(Cl)cc(C(F)(F)F)cc2Cl)nc1SC#N | 115 to 117
14 | CCCc1nc(C=NNC(=S)SC)c[nH]1 | 95 to 104
15 | Cc1cccc2nc(C(C)(C)NC(=O)COC3c4ccccc4-c4ccccc43)oc(=O)c12 | 162 to 163
16 | CN1C(=O)C(=O)c2cc(I)ccc21 | 160 to 162
17 | O=C1c2ccccc2C(=O)N1CC1CCC2CN(c3ccccn3)CCN2C1 (stereo not given) | 167 to 168
18 | OC(Cn1ccnc1)(Cn1cncn1)c1ccc(Cl)cc1Cl (stereo not given) | 169 to 170
19 | CN1CCN(Cc2c(O)c(O)c(O)c3c(=O)cc(-c4ccccc4)oc23)CC1 | 280 to 282
20 | COc1ccc2nc(-c3ccc(N)cc3)sc2c1 | 191 to 193
21 | CC(C)n1ccnc1S(=O)(=O)c1ccc(O)cc1 | 152 to 153
22 | CCOC(=O)N[C@@H](C(=O)N1CCC[C@H]1C(=O)O)c1ccccc1 | 163 to 166
23 | CC(C)(C)[C@H]1N(c2ccc(C#N)c3ccccc23)C(=O)[C@@H]2C[C@@H](OCc3ccccc3)CN21 | 155 to 157
24 | CCc1cc(Cc2cc(C)c(N)c(CC)c2)cc(C)c1N | 85 to 86

Row | Compound | melting point [°C]
25 | CC(C)(Oc1ccc(CCC(=O)c2ccc(-c3ccc(C(F)(F)F)cc3)o2)c(Cl)c1Cl)C(=O)O | 85
26 | CCn1c2ccccc2c2cc(C=Cc3ccc(N)cc3)ccc21 | 131 to 132
27 | CC(=O)N1CCN=C1Nc1cc(C)nn1-c1ccccc1C | 160 to 161
28 | C=C(C)C(=O)NCCCC(=O)Nc1cc(Cl)c(C)c(Cl)c1O | 119 to 121
29 | CCOC1CC2(C)C(CCC3C4CCC(C(C)=O)C4(C)CC(NCCC(C)C)C32)CC1O (stereo not given) | 110 to 112
30 | CNC(=O)NC(=O)N(C)c1ccccc1 | 123 to 125
31 | N#CCc1ccc(OCc2ccccc2)c2c1OCCO2 | 95
32 | Cc1onc(-c2ccc(Cl)o2)c1-c1ccccc1 | 71 to 73
33 | CC(C)CC(N)C(=O)NC(=O)N(CCCl)N=O (racemic) | 82 to 84
34 | COC(=O)C(C)(C)Nc1nc(Cl)ccc1[N+](=O)[O-] | 96 to 97
35 | CSc1c(CO)sc2c1CCN(C)CC2c1ccccc1 (stereo not given) | 146
36 | CC(C)(C)C(=O)c1c[nH]c2ncc(-c3cccc(NC4CCCC4O)c3)nc12 (stereo not given) | 178 to 180
37 | N#Cc1cc(F)ccc1-c1cncc(OC2SCC(O)C(O)C2O)c1 (stereo not given) | 198 to 200
38 | O=C(CNc1c(C(=O)O)[nH]c2cc(Cl)cc(Cl)c12)c1ccc(Cl)cc1 | 279 to 283
39 | CCCCc1nc2c(N)nc3ccccc3c2n1CCCCNC(=O)c1ccccc1 | 174 to 175
40 | CN(C)C(=O)CNc1ccncc1[N+](=O)[O-] | 142 to 143
41 | O=C(O)c1c[nH]c2c(-c3ccncc3)c(-c3ccc(F)cc3)nn2c1=O | 215 to 218
42 | N=C(NC1CC1)NN1CCc2cc(Cl)ccc21 | 146 to 149
43 | CCCCCC(CC(=O)Nc1cc(C(N)=O)ccc1C(C)(C)C)c1ccc(OC)cc1OC (single isomer, unassigned; (+)) | 152
44 | COc1cc(OC)cc(N2CCN(C(=O)N(C)c3cc(C(C)OC)c(C)nc3OC)CC2)c1 (stereo not given) | 117 to 119
45 | CC1Nc2ccc(-c3csc(C#N)c3)cc2C2(CCCCC2)O1 (stereo not given) | 111 to 112
46 | Cc1ccc2c(N)nc(-c3cccc4ccccc34)cc2c1 | 170
47 | CC(C)N1C(=O)C(=O)NC1=NC(=N)Nc1ccc(Cl)c(Cl)c1 | 230
48 | Cc1oc(C=Cc2cccc(C(F)(F)F)c2)nc1C(=O)O | 204 to 205

Row | Compound | melting point [°C]
49 | COc1cc2ccc(-c3cc4c(cc3[N+](=O)[O-])OCO4)c([N+](=O)[O-])c2cc1OC | 187 to 189
50 | CCOC(=O)c1c(OCC)nsc1NC(=O)NC | 195 to 196
51 | CC(=O)C(=[N+]=[N-])C(=O)c1ccccn1 | 69 to 74
52 | CC(C)n1ncnc1COc1nn2c(-c3cc(F)ccc3F)nncc2c1C(C)(C)C | 163
53 | COc1ccc(-c2sc3c(c2C)c(=O)c(CO)cn3Cc2ccccc2OC)cc1 | 153 to 156
54 | CC(CC(C)(C)c1ccccc1)N=C(O)C(Cl)=C(Cl)C(=O)O (stereo not given) | 106 to 109
55 | COc1c(C)cnc(Cn2cc(C#CCCCN3CCN(C)CC3)c3c(Cl)nc(N)nc32)c1C | 160 to 162
56 | CCC(O)(c1ccccc1)c1cccc(N)c1 (stereo not given) | 92 to 93
57 | CCCN(C)CCCN1CCN(c2cc(-c3ccnc(NCc4cccc(OC)c4)n3)cc3ccc(OC)cc23)CC1 | 156 to 160
58 | Cc1nc2c3c(c(C(=O)N4CC(F)C4)cc2n1C)CCC1(Cc2ccccc2C1)N3 | 259 to 260
59 | CCOC(NC(=O)c1cccc(OC)c1)C(N)=O (stereo not given) | 143 to 144
60 | Cc1nn(C)c2nc(N)c(-c3cccc(Cl)c3)nc12 | 224 to 226
61 | CSCc1cnc2c(NC(=O)c3c(Cl)cccc3Cl)cccc2c1Cl | 173 to 175
62 | Cc1nsc(NC(=O)C(C)c2ccc3oc(-c4cccc(Cl)c4Cl)nc3c2)c1Cl (stereo not given) | 158 to 161
63 | O=C(O)Cc1ccc(CCNC(=O)c2ccc(Cl)cc2)cc1 | 182 to 183
64 | Cc1ccc(-c2ncccc2OC2SCC(O)C(O)C2O)o1 (stereo not given) | 191
65 | CC(=O)c1c(-c2ccc(F)cc2)nc2occn12 | 173
66 | Cc1cc(-n2cncn2)c2cccc(OCc3c(Cl)ccc(S(=O)(=O)N4CCC[C@H]4C(=O)NCC4CCN(C(=O)OC(C)(C)C)CC4)c3Cl)c2n1 | 94
67 | Cn1cccc1C(=O)NN(C(=O)c1ccccc1)C(C)(C)C | 182 to 185
68 | O=C1CCC(=O)N1Cc1cccc(Nc2n[nH]c3ncnc(Nc4cccc(Cl)c4)c23)c1 | 140 to 142
69 | CCOP(=O)(Cc1ccc(NC(=O)c2cc3c(s2)-c2c(SC)sc(C(=O)Nc4ccc(CP(=O)(OCC)OCC)cc4)c2CC3)cc1)OCC | 262 to 263
70 | Cc1cc(-c2cccc(-c3ccc(C4(O)C5CCC4CN(Cc4ccccc4)C5)cc3)n2)c(C)[nH]1 (stereo not given) | 58 to 68
